What all share (assay type): in vivo
In data set [1] the test system is Yellow Fever Mosquito (Aedes aegypti, AEDSAE). Briefly: Insecticidal test for yellow fever mosquito (YFM), 96-well plate larval assay. To be noted: from 4000 ppm DMSO master solution, diluted; about 1 day-old larvae; room temperature; scored after 3 days. The procedure:
Insecticidal Test for Yellow Fever Mosquito (Aedes aegypti, AEDSAE) (“YFM”)
Master plates containing 400 μg of a molecule dissolved in 100 μL of dimethyl sulfoxide (DMSO) (equivalent to a 4000 ppm solution) are used. A master plate of assembled molecules contains 15 μL per well. To this plate, 135 μL of a 90:10 water/acetone mixture is added to each well. A robot (Biomek® NXP Laboratory Automation Workstation) is programmed to dispense 15 μL aspirations from the master plate into an empty 96-well shallow plate (“daughter” plate). There are 6 reps (“daughter” plates) created per master. The created “daughter” plates are then immediately infested with YFM larvae.
The day before plates are to be treated, mosquito eggs are placed in Millipore water containing liver powder to begin hatching (4 g. into 400 mL). After the “daughter” plates are created using the robot, they are infested with 220 μL of the liver powder/larval mosquito mixture (about 1 day-old larvae). After plates are infested with mosquito larvae, a non-evaporative lid is used to cover the plate to reduce drying. Plates are held at room temperature for 3 days prior to grading. After 3 days, each well is observed and scored based on mortality.

For data set [2], the system named is Cabbage Looper (Trichloplusia Ni, TRIPNI). Briefly: Insecticidal test for cabbage looper (CL), 128-well diet tray assay. To be noted: Trichoplusia ni, 168 h, read-out: CL % Control (or Mortality) rating. Here is the method:
Insecticidal Test for Cabbage Looper (Trichloplusia Ni, TRIPNI) (“CL”)
(§1) Bioassays on cabbage looper (CL; Trichloplusia ni: Lepidoptera) are conducted using a 128-well diet tray assay. One to five second instar CL larvae are placed in each well (3 mL) of the diet tray that had been previously filled with 1 mL of artificial diet to which 50 μg/cm^2 of the test compound (dissolved in 50 μL of 90:10 acetone-water mixture) had been applied (to each of eight wells) and then allowed to dry. Trays are covered with a clear self-adhesive cover, vented to allow gas exchange, and held at 25° C., 14:10 light-dark for five to seven days. Percent mortality is recorded for the larvae in each well; activity in the eight wells is then averaged.

Data set [3] relates to Beet Armyworm (Spodoptera exigua, LAPHEG). The data set is described as follows: Insecticidal test for beet armyworm (BAW), 128-well diet tray assay. The note with it: 168 h, 50 μg/cm^2 of test compound on artificial diet, second instar larvae, 25° C., five to seven days, average of eight wells, read-out: BAW % Control (or Mortality) rating. The procedure: Insecticidal Test for Beet Armyworm (Spodoptera exigua, LAPHEG) (“BAW”)
as §1, with “beet armyworm (BAW; Spodoptera exigua:” for “cabbage looper (CL; Trichloplusia ni:”, “BAW” for “CL”

As to `Cc1ccc(C(C)C)c(N2C(=O)CS/C2=N\C(=O)Nc2ccc(CCOC(=O)Nc3ccc(OC(F)(F)F)cc3)cc2)c1` [Compound A52, (Z)-4-(3-(3-(2-isopropyl-5-methylphenyl)-4-oxothiazolidin-2-ylidene)ureido)phenethyl (4-(trifluoromethoxy)phenyl)carbamate], in data set [1], the “YFM % Control (or Mortality) rating” value is “A (80-100)”. Besides, the mortality at 50 µg/cm2 in data set [2] and in data set [3] was 50 to 100% throughout.
In the case of `COc1ccc(N2C(=O)CS/C2=N\C(=O)NCCc2ccc(NC(=O)Nc3ccc(C(F)(F)F)cc3)cc2)c(C)c1` [Compound A10, (Z)-1-(4-(2-(3-(3-(4-Methoxy-2-methylphenyl)-4-oxothiazolidin-2-ylidene)ureido)ethyl)phenyl)-3-(4-(trifluoromethyl)phenyl)urea], the “YFM % Control (or Mortality) rating” value in data set [1] is recorded as “A (80-100)”. Moreover, the mortality at 50 µg/cm2 in data set [2] and in data set [3] was 50 to 100% each time.
As for `Cc1ccc(C(C)C)c(N2C(=O)CS/C2=N\C(=O)Nc2ccc(NNC(=O)c3ccc(OC(F)(F)F)cc3)cc2)c1` [Compound A4, (Z)-1-(3-(2-isopropyl-5-methylphenyl)-4-oxothiazolidin-2-ylidene)-3-(4-(2-(4-(trifluoromethoxy)benzoyl)hydrazinyl)phenyl)urea], the “YFM % Control (or Mortality) rating” value in data set [1] was “A (80-100)”. The mortality at 50 µg/cm2 in data set [2] and in data set [3] was 50 to 100% each time.
With `Cc1ccc(C(C)C)c(N2C(=O)CS/C2=N\C(=O)Nc2ccc(NS(=O)(=O)c3ccc(OC(F)(F)F)cc3)cc2)c1` [Compound A51, (Z)—N-(4-(3-(3-(2-isopropyl-5-methylphenyl)-4-oxothiazolidin-2-ylidene)ureido)phenyl)-4-(trifluoromethoxy)benzenesulfonamide], the “YFM % Control (or Mortality) rating” value in data set [1] was “B (More than 0-Less than 80)”. The mortality (in general, the percentage killed) at 50 µg/cm2 in data set [2] was 50 to 100%; in data set [3] it was 0%.
For `CC(Cc1ccc(NC(=O)Nc2ccc(C(F)(F)F)cc2)cc1)NC(=O)/N=C1\SCC(=O)N1c1ccccc1C(C)C` (centres unmarked) [Compound A28, (Z)-1-(4-(2-(3-(3-(2-Isopropylphenyl)-4-oxothiazolidin-2-ylidene)ureido)propyl)phenyl)-3-(4-(trifluoromethyl)phenyl)urea] the same measures were “A (80-100)”, 50 to 100% and 50 to 100%.
For `Cc1ccc(OCC(F)(F)F)c(N2C(=O)CS/C2=N\C(=O)Nc2ccc(NNC(=O)c3ccc(OC(F)(F)F)cc3)cc2)c1` [Compound A5, (Z)-1-(3-(5-Methyl-2-(2,2,2-trifluoroethoxy)phenyl)-4-oxothiazolidin-2-ylidene)-3-(4-(2-(4-(trifluoromethoxy)benzoyl)hydrazinyl)phenyl)urea] the same measures were “B (More than 0-Less than 80)”, 0 to 50% and 0 to 50%.
Take `Cc1ccc(C(C)C)c(N2C(=O)CS/C2=N\C(=O)Nc2ccc(NC(=S)Nc3ccc(OC(F)(F)F)cc3)cc2)c1` [Compound A45, (Z)-1-(3-(2-isopropyl-5-methylphenyl)-4-oxothiazolidin-2-ylidene)-3-(4-(3-(4-(trifluoromethoxy)phenyl)thioureido)phenyl)urea]: the “YFM % Control (or Mortality) rating” value in data set [1] is on record as “A (80-100)”. For the same compound, the mortality at 50 µg/cm2 in data set [2] and in data set [3] was 50 to 100% each time.
With `CCc1cccc(C)c1N1C(=O)CS/C1=N\C(=O)NCCc1ccc(NC(=O)Nc2ccc(OC(F)(F)F)cc2)cc1` [Compound A23, (Z)-1-(4-(2-(3-(3-(2-Ethyl-6-methylphenyl)-4-oxothiazolidin-2-ylidene)ureido)ethyl)phenyl)-3-(4-(trifluoromethoxy)phenyl)urea], the “YFM % Control (or Mortality) rating” value in data set [1] is given as “A (80-100)”. In addition, the mortality at 50 µg/cm2 in data set [2] and in data set [3] was 50 to 100% in each case.
For the compound `CC(Cc1ccc(NC(=O)Nc2ccc(OC(F)(F)F)cc2)cc1)NC(=O)/N=C1\SCC(=O)N1c1cc(Cl)ccc1C(C)C` (centres unmarked) [Compound A35, (Z)-1-(4-(2-(3-(3-(5-Chloro-2-isopropylphenyl)-4-oxothiazolidin-2-ylidene)ureido)propyl)phenyl)-3-(4-(trifluoromethoxy)phenyl)urea], in data set [1], the “YFM % Control (or Mortality) rating” value is “A (80-100)”. The mortality at 50 µg/cm2 in data set [2] and in data set [3] was 50 to 100% each time.
Turning to `CC(C)c1ccc(Cl)cc1N1C(=O)CS/C1=N\C(=O)NCCc1ccc(NC(=O)Nc2ccc(C(F)(F)F)cc2)cc1` [Compound A13, (Z)-1-(4-(2-(3-(3-(5-Chloro-2-isopropylphenyl)-4-oxothiazolidin-2-ylidene)ureido)ethyl)phenyl)-3-(4-(trifluoromethyl)phenyl)urea], the “YFM % Control (or Mortality) rating” value in data set [1] was “A (80-100)”. Further, the mortality at 50 µg/cm2 in data set [2] and in data set [3] was 50 to 100% in each case.
`CCCc1ccc(OC)cc1N1C(=O)CS/C1=N\C(=O)NC(C)Cc1ccc(NC(=O)Nc2ccc(OC(F)(F)F)cc2)cc1` (centres unmarked) [Compound A37, (Z)-1-(4-(2-(3-(3-(5-Methoxy-2-propylphenyl)-4-oxothiazolidin-2-ylidene)ureido)propyl)phenyl)-3-(4-(trifluoromethoxy)phenyl)urea]: in data set [1], the “YFM % Control (or Mortality) rating” value is given as “B (More than 0-Less than 80)”. In addition, the mortality at 50 µg/cm2 in data set [2] and in data set [3] was 50 to 100% throughout.
On to `Cc1ccc(C(C)C)c(N2C(=O)CS/C2=N\C(=O)Nc2ccc(C(=O)NNc3ccc(OC(F)(F)F)cc3)cc2)c1` [Compound A2, (Z)-1-(3-(2-Isopropyl-5-methylphenyl)-4-oxothiazolidin-2-ylidene)-3-(4-(2-(4-(trifluoromethoxy)phenyl)hydrazine-1-carbonyl)phenyl)urea], for which the “YFM % Control (or Mortality) rating” value in data set [1] was “A (80-100)”. In addition, the mortality at 50 µg/cm2 in data set [2] and in data set [3] was 50 to 100% in each case.
Consider `CCC(C)Oc1ccc(C)cc1N1C(=O)CS/C1=N\C(=O)NC(C)Cc1ccc(NC(=O)Nc2ccc(C(F)(F)F)cc2)cc1` (centres unmarked) [Compound A30, (Z)-1-(4-(2-(3-(3-(2-(sec-Butoxy)-5-methylphenyl)-4-oxothiazolidin-2-ylidene)ureido)propyl)phenyl)-3-(4-(trifluoromethyl)phenyl)urea], for which the “YFM % Control (or Mortality) rating” value in data set [1] is on record as “B (More than 0-Less than 80)”. The mortality at 50 µg/cm2 in data set [2] and in data set [3] was 50 to 100% throughout.
`Cc1ccc(C(C)C)c(N2C(=O)CS/C2=N\C(=O)NCCc2ccc(NCC(=O)c3ccc(OC(F)(F)F)cc3)cc2)c1` [Compound A1, (Z)-1-(3-(2-isopropyl-5-methylphenyl)-4-oxothiazolidin-2-ylidene)-3-(4-((2-oxo-2-(4-(trifluoromethoxy)phenyl)ethyl)amino)phenethyl)urea]: the “YFM % Control (or Mortality) rating” value in data set [1] is reported as “A (80-100)”. Further, the mortality at 50 µg/cm2 in data set [2] and in data set [3] was 50 to 100% each time.
`O=C(/N=C1\SCC(=O)N1c1cccc2c1CCCC2)NCCc1ccc(NC(=O)Nc2ccc(OC(F)(F)F)cc2)cc1` [Compound A24, (Z)-1-(4-(2-(3-(4-Oxo-3-(5,6,7,8-tetrahydronaphthalen-1-yl)thiazolidin-2-ylidene)ureido)ethyl)phenyl)-3-(4-(trifluoromethoxy)phenyl)urea]: the “YFM % Control (or Mortality) rating” value in data set [1] is listed as “B (More than 0-Less than 80)”. The mortality at 50 µg/cm2 in data set [2] and in data set [3] was 50 to 100% in each case.
As to `Cc1ccc(C(C)C)c(N2C(=O)CS/C2=N\C(=O)NCCc2ccc(NC(=O)Nc3ccc(OC(F)(F)F)cc3)cc2)c1` [Compound A8, (Z)-1-(3-(2-isopropyl-5-methylphenyl)-4-oxothiazolidin-2-ylidene)-3-(4-(3-(4-(trifluoromethoxy)phenyl)ureido)phenethyl)urea], the “YFM % Control (or Mortality) rating” value in data set [1] is “A (80-100)”. The mortality at 50 µg/cm2 in data set [2] and in data set [3] was 50 to 100% in each case.
Regarding `CCc1cccc(C)c1N1C(=O)CS/C1=N\C(=O)NC(C)Cc1ccc(NC(=O)Nc2ccc(C(F)(F)F)cc2)cc1` (centres unmarked) [Compound A32, (Z)-1-(4-(2-(3-(3-(2-Ethyl-6-methylphenyl)-4-oxothiazolidin-2-ylidene)ureido)propyl)phenyl)-3-(4-(trifluoromethyl)phenyl)urea], the mortality at 50 µg/cm2 in data set [2] and in data set [3] was 50 to 100% throughout.

The record behind these values is patent publication US11332452B2, “Pesticidal compositions and methods” (priority 2019, dated 2022).
